Measurements reported in US8779157B2, “MGLUR4 allosteric potentiators, compositions, and methods of treating neurological dysfunction” (Vanderbilt University, priority 2009, dated 2014).

biological target: mGluR4 (UniProt Q14833); assay: mGluR4 potentiation assay (fluorescence, Ca2+ or thallium/GIRK readout; EC20 agonist); type: cell-based, human / rat; settings: half maximal effective concentration for mGluR4 potentiation; species of receptor not given
Experimental: The disclosed compounds and compositions can be evaluated for their ability to act as a potentiator of metabotropic glutamate receptor activity, in particular mGluR4 activity, by any suitable known methodology known in the art. For example, Chinese Hamster Ovary (CHO) cells transfected with human mGluR4 or HEK cells co-transfected with rat mGluR4 and the G-protein regulated Inwardly Rectifying Potassium channel (GIRK) were plated in clear bottom assay plates for assay in a Hamamatsu FDSS Fluorometric Plate Reader. The cells were loaded with either a Ca2+-sensitive fluorescent dye or the thallium responsive dye and the plates were washed and placed into a suitable kinetic plate reader. For human mGluR4 assays, a fluorescence baseline was established for 3-5 seconds, the disclosed compounds were then added to the cells, and the response in cells was measured. Approximately two and a half minutes later, a concentration of mGluR4 orthosteric agonist (e.g. glutamate or L-AP4) eliciting approximately 20% (EC20) of the maximal agonist response was added to the cells, and the response was measured. Two minutes later, a concentration of mGluR4 agonist (e.g. glutamate or L-AP4) eliciting 80% (EC80) of the maximal agonist response was added to the cells, and the response was measured. For rat mGluR4/GIRK experiments, a baseline was established for approximately five seconds, disclosed compounds were added, and either an EC20 or EC80 concentration of agonist was added approximately two and one half minutes later. Potentiation of the agonist response of mGluR4 by the disclosed compounds was observed as an increase in response to the EC20 concentration of agonist in the presence of compound compared to the response to agonist in the absence of compound. Similarly, antagonism of the agonist response of mGluR4 by the disclosed compounds was observed as a decrease in response to the EC80 concentration of agonist in the presence of compound compared to the response to agonist in the absence of compound.
The above described assay operated in two modes. In the first mode, a range of concentrations of the disclosed compounds are added to cells, followed by a single fixed concentration of agonist. If the compound acts as a potentiatior, an EC50 value for potentiation and a maximum extent of potentiation by the compound at this concentration of agonist is determined by non-linear curve fitting. If the compound acts as a noncompetitive antagonist, an IC50 value is determined by non-linear curve fitting. In the second mode, several fixed concentrations of the disclosed compounds are added to various wells on a plate, followed by a range in concentrations of agonist for each concentration of disclosed compound. The EC50 values for the agonist at each concentration of compound are determined by non-linear curve fitting. A decrease in the EC50 value of the agonist with increasing concentrations of the sample compound (a leftward shift of the agonist concentration-response curve) is an indication of the degree of mGluR4 potentiation at a given concentration of the sample compound. A decrease in the maximal response of the agonist with increasing concentrations of the sample compounds, with or without a rightward shift in agonist potency, is an indication of the degree of noncompetitive antagonism at mGluR4. The second mode also indicates whether the sample compounds also affect the maximum response to mGluR4 to agonists.

SMILES	EC50
CC(C)C[C@@]1(C)NC(=O)N(c2ccc(NC(=O)c3ccccn3)cc2Cl)C1=O [Example 1.3.17, (R)-N-(3-chloro-4-(4-isobutyl-4-methyl-2,5-dioxoimidazolidin-1-yl)phenyl)picolinamide]	1.5 µM
CC1(C)NC(=O)N(c2ccc(NC(=O)c3ccccn3)cc2Cl)C1=O [Example 1.3.18, N-(3-chloro-4-(4,4-dimethyl-2,5-dioxoimidazolidin-1-yl)phenyl)picolinamide]	4.21 µM
C[C@]1(Cc2ccccc2)NC(=O)N(c2ccc(NC(=O)c3ccccn3)cc2Cl)C1=O [Example 1.3.19, (R)-N-(4-(4-Benzyl-4-methyl-2,5-dioxoimidazolidin-1-yl)-3-chlorophenyl)picolinamide]	0.84 µM
C[C@@]1(Cc2ccccc2)NC(=O)N(c2ccc(NC(=O)c3ccccn3)cc2Cl)C1=O [Example 1.3.20, (S)-N-(4-(4-benzyl-4-methyl-2,5-dioxoimidazolidin-1-yl)-3-chlorophenyl)picolinamide]	0.604 µM
O=C(Nc1ccc(N2C(=O)C3COCCN3C2=O)c(Cl)c1)c1ccccn1 (centres unmarked) [Example 1.3.21, N-(3-Chloro-4-(1,3-dioxodihydro-1H-imidazo[5,1-c][1,4]oxazin-2(3H,8H,8aH)-yl)phenyl)picolinamide]	2.18 µM
O=C(Nc1ccc(N2C(=O)C3COCCN3C2=O)c(Cl)c1)c1ncccc1F (centres unmarked) [Example 1.3.22, N-(3-Chloro-4-(1,3-dioxodihydro-1H-imidazo[5,1-c][1,4]oxazin-2(3H,8H,8aH)-yl)phenyl)-3-fluoropicolinamide]	5.82 µM
O=C(Nc1ccc(N2C(=O)C3COCCN3C2=O)c(Cl)c1)c1cccc(Cl)n1 (centres unmarked) [Example 1.3.23, 6-Chloro-N-(3-chloro-4-(1,3-dioxodihydro-1H-imidazo[5,1-c][1,4]oxazin-2(3H,8H,8aH)-yl)phenyl)picolinamide]	4.83 µM
O=C(Nc1ccc(N2C(=O)C3COCCN3C2=O)c(Cl)c1)c1cccs1 (centres unmarked) [Example 1.3.24, N-(3-Chloro-4-(1,3-dioxodihydro-1H-imidazo[5,1-c][1,4]oxazin-2(3H,8H,8aH)-yl)phenyl)thiophene-2-carboxamide]	9.5 µM
O=C(Nc1ccc(N2C(=O)C3COCCN3C2=O)c(Cl)c1)c1nccs1 (centres unmarked) [Example 1.3.25, N-(3-Chloro-4-(1,3-dioxodihydro-1H-imidazo[5,1-c][1,4]oxazin-2(3H,8H,8aH)-yl)phenyl)thiazole-2-carboxamide]	6.32 µM
O=C(Nc1ccc(N2C(=O)C3COCCN3C2=O)c(Cl)c1)c1cscn1 (centres unmarked) [Example 1.3.26, N-(3-Chloro-4-(1,3-dioxodihydro-1H-imidazo[5,1-c][1,4]oxazin-2(3H,8H,8aH)-yl)phenyl)thiazole-4-carboxamide]	6.11 µM
O=C(Nc1ccc(N2C(=O)C3COCCN3C2=O)c(Cl)c1)c1ncc(F)cc1F (centres unmarked) [Example 1.3.27, N-(3-Chloro-4-(1,3-dioxodihydro-1H-imidazo[5,1-c][1,4]oxazin-2(3H,8H,8aH)-yl)phenyl)-3,5-difluoropicolinamide]	2.93 µM
O=C(Nc1ccc(N2C(=O)C3COCCN3C2=O)c(Cl)c1)c1ccc(Cl)o1 (centres unmarked) [Example 1.3.28, 5-Chloro-N-(3-chloro-4-(1,3-dioxodihydro-1H-imidazo[5,1-c][1,4]oxazin-2(3H,8H,8aH)-yl)phenyl)furan-2-carboxamide]	8.77 µM
O=C(Nc1ccc(N2C(=O)C3COCCN3C2=O)c(Cl)c1)c1cccc(F)n1 (centres unmarked) [Example 1.3.29, N-(3-Chloro-4-(1,3-dioxodihydro-1H-imidazo[5,1-c][1,4]oxazin-2(3H,8H,8aH)-yl)phenyl)-6-fluoropicolinamide]	6.73 µM
O=C(Nc1ccc(N2C(=O)C3COCCN3C2=S)c(Cl)c1)c1ccccn1 (centres unmarked) [Example 1.3.30, N-(3-Chloro-4-(1-oxo-3-thioxodihydro-1H-imidazo[5,1-c][1,4]oxazin-2(3H, 8H,8aH)-yl)phenyl)picolinamide]	1.47 µM
